We go through three molecules from PMC11002876, “KcsA-Kv1.x chimeras with complete ligand-binding sites provide improved predictivity for screening selective Kv1.x blockers” (The Journal of Biological Chemistry, 2024).

For this experiment, the system named is human Kv1.3 channel (hKv1.3). Description: Whole-cell patch-clamp of phage-displayed toxins, hKv1.3 in human lymphocytes. Type of experiment: cell-based. The following applies: for estimated relative potency in phage-displayed form: from phage concentrations required to reach 50% block of hKv1.3 current, Vm24 = 1, Fig. 9B; for inhibition of Kv1.3 current in phage-displayed form, in words: phage-displayed peptide, DDDKTX1- and KTX1-phage at 3.6 × 10^13 particle/ml. As to the method:
Human Kv1.3 currents were recorded from activated peripheral blood mononuclear cells (see below) 3 to 4 days after activation. Heparinized human peripheral venous blood was obtained from healthy volunteers. Mononuclear cells were separated through Histopaque-1077 density gradient centrifugation. Collected cells were washed twice with Ca^2+- and Mg^2+-free Hanks’ solution containing 25 mM Hepes buffer, pH 7.4. Cells were cultured for 3 to 4 days in 24-well culture plates in a 5% CO2 incubator at 37 °C, in RPMI 1640 medium supplemented with 10% fetal calf serum (Sigma-Aldrich), 100 μg/ml penicillin, 100 μg/ml streptomycin, and 2 mM L-glutamine (density, 0.5 × 10^6 cells per ml). Phytohemagglutinin A (Sigma-Aldrich) was added to the medium at 10 μg/ml to amplify the Kv1.3 expression. Cells were washed gently twice with 2 ml of ECS for the patch-clamp experiments.
Conventional whole-cell patch-clamp electrophysiology was used to record ionic currents. Micropipettes were pulled from GC150F-7.5 borosilicate capillaries (Harvard Apparatus) with tip diameters between 0.5 and 1 μm resulting in a tip resistance of 2 to 8 MΩ in the extracellular (bath) solution. All measurements were carried out by using Axopatch 200B amplifier connected to a personal computer using Axon Digidata 1550A data acquisition hardware and Pclamp10.7 software (https://support.moleculardevices.com/s/article/Axon-pCLAMP-10-Electrophysiology-Data-Acquisition-Analysis-Software-Download-Page). The holding potential was −120 mV. Records were discarded when leak at the holding potential was >10% of peak current at the test potential. Experiments were performed at room temperature (20–24 °C). Before analysis, whole-cell current traces were corrected for ohmic leakage and digitally filtered with a three-point boxcar smoothing filter.
Solutions: all salts and components of the solutions were purchased from Sigma Aldrich. The extracellular (bath) solution (ECS) contained 145 mM NaCl, 5 mM KCl, 2.5 mM CaCl2, 1 mM MgCl2, 10 mM Hepes, and 5.5 mM glucose (pH 7.35 with NaOH), while the intracellular (pipette) solution (ICS) contained 140 mM KF, 2 mM MgCl2, 1 mM CaCl2, 11 mM EGTA, and 10 mM Hepes (pH 7.22 with KOH). The osmolarity of the ECS and ICS were 302 mOsM.
Native peptides, phage-expressed peptides, and positive controls used for them were dissolved in ECS supplemented with 0.1 mg/ml bovine serum albumin (BSA; Sigma-Aldrich Hungary). Bath perfusion around the measured cell with different extracellular solutions was achieved using a gravity flow micro perfusion system using a rate of 0.5 ml/min. Excess fluid was removed continuously.
Voltage protocols: For measurement of Kv1.1 to 1.3 currents, voltage steps to +50 mV were applied from a holding potential of −120 mV and the peak current was measured every 15 s. For Kv1.3 currents, 15-ms-long depolarizing pulses were applied. For Kv1.1, 50-ms-long–activating stimuli were used. Kv1.2 currents were evoked by 200-ms-long pulses. […] The remaining current fraction at a given molar concentration was calculated as I/I0, where I0 is the peak current in the absence and I is the peak current at equilibrium block or […] after ∼2 min perfusion by the investigated peptide/phage.
Phage display test solutions were prepared according to routine phage display protocols ([62]). Phosphorylated and annealed oligonucleotides encoding the peptide construct were ligated into linearized pAS62 phagemid vector (https://patents.google.com/patent/WO2022144560A1/en) at a vector/insert ratio of 1:3. The final phagemid construct harbored a signal sequence followed by the peptide of interest, a linker sequence ([…]), and the C-terminal part of the P3 coat protein (amino acids: 216-424 of NP_510891.1). Chemically competent XL1-Blue E. coli cells (2022249, Agilent) were transformed with the ligation product and then streaked onto ampicillin (100 μg/ml) containing LB/Amp plates and incubated for 16 h at 37 °C.

Where a SMILES comes first, the peptide text is derived from it. A value given as a limit tells only on which side of the number the result lay.

For `CC[C@H](C)[C@@H]1NC(=O)CNC(=O)[C@H](Cc2ccccc2)NC(=O)[C@H](CCC(N)=O)NC(=O)[C@H](C)NC(=O)[C@H](CCCCN)NC(=O)[C@@H]2CSSC[C@@H](C(=O)N[C@@H](Cc3ccc(O)cc3)C(=O)N3CCC[C@H]3C(=O)N[C@@H](Cc3c[nH]cn3)C(=O)O)NC(=O)[C@H](CCCCN)NC(=O)[C@@H]3CSSC[C@H](NC(=O)[C@H](CCC(N)=O)NC(=O)[C@H](CCCCN)NC(=O)[C@@H]4CCCN4C(=O)[C@H](CO)NC(=O)[C@H]([C@@H](C)O)NC(=O)[C@@H](NC(=O)[C@H](CCCCN)NC(=O)[C@@H](NC(=O)[C@H](CC(=O)O)NC(=O)[C@@H](NC(=O)[C@@H](NC(=O)[C@@H](N)[C@@H](C)O)C(C)C)[C@@H](C)CC)C(C)C)CSSC[C@H](NC(=O)[C@H](CCCCN)NC(=O)[C@H](C)NC(=O)CNC(=O)[C@H](C)NC(=O)[C@H](CCCNC(=N)N)NC1=O)C(=O)N[C@@H](CCSC)C(=O)N[C@@H](CC(N)=O)C(=O)NCC(=O)N[C@@H](CCCCN)C(=O)N3)C(=O)N[C@@H](CC(C)C)C(=O)N1CCC[C@H]1C(=O)N1CCC[C@H]1C(=O)N2` [HgTx1, Hongotoxin-1] (HELM PEPTIDE1{T.V.I.D.V.K.C.T.S.P.K.Q.C.L.P.P.C.K.A.Q.F.G.I.R.A.G.A.K.C.M.N.G.K.C.K.C.Y.P.H}$PEPTIDE1,PEPTIDE1,7:R3-29:R3|PEPTIDE1,PEPTIDE1,13:R3-34:R3|PEPTIDE1,PEPTIDE1,17:R3-36:R3$$$V2.0; N-terminus and C-terminus assumed), the “estimated relative potency in phage-displayed form” value is 1/30 and the “inhibition of Kv1.3 current in phage-displayed form, in words” value was “significant inhibition”.
Regarding `CC[C@H](C)[C@H](NC(=O)[C@H](CCC(=O)O)NC(=O)[C@@H](NC(=O)CN)C(C)C)C(=O)N[C@@H](CC(N)=O)C(=O)N[C@H](C(=O)N[C@@H](CCCCN)C(=O)N[C@H]1CSSC[C@@H]2NC(=O)[C@H](CCCCN)NC(=O)CNC(=O)[C@H](Cc3ccccc3)NC(=O)[C@H](CCCNC(=N)N)NC(=O)[C@H](CCSC)NC(=O)CNC(=O)[C@H](C)NC(=O)[C@H](CC(=O)O)NC(=O)[C@H](CCCCN)NC(=O)[C@@H]3CSSC[C@@H](C(=O)N[C@H](C(=O)N4CCC[C@H]4C(=O)N[C@@H](CCCCN)C(=O)O)[C@@H](C)O)NC(=O)[C@H](Cc4c[nH]cn4)NC(=O)[C@H](CSSC[C@H](NC(=O)[C@H](CCC(N)=O)NC(=O)[C@@H]4CCCN4C(=O)[C@H](CO)NC(=O)CNC(=O)[C@H](CO)NC1=O)C(=O)N[C@@H](CC(C)C)C(=O)N[C@@H](CCCCN)C(=O)N1CCC[C@H]1C(=O)N3)NC(=O)[C@H](CCCCN)NC(=O)[C@H](CCCNC(=N)N)NC(=O)[C@H](CC(N)=O)NC(=O)[C@H](CCSC)NC2=O)C(C)C` [KTX1, Kaliotoxin-1], the “estimated relative potency in phage-displayed form” value is listed as < 1/600 and the “inhibition of Kv1.3 current in phage-displayed form, in words” value was “significant inhibition”.
On the same counts, the results for `CC[C@H](C)[C@H](NC(=O)[C@H](C)NC(=O)[C@H](C)NC(=O)[C@H](C)N)C(=O)N[C@@H](CO)C(=O)N[C@H]1CSSC[C@@H]2NC(=O)[C@H](CCCCN)NC(=O)CNC(=O)[C@H](CC(N)=O)NC(=O)[C@H](CCCCN)NC(=O)[C@@H]3CSSC[C@@H](C(N)=O)NC(=O)[C@H](Cc4ccc(O)cc4)NC(=O)[C@H](Cc4ccc(O)cc4)NC(=O)[C@@H]4CSSC[C@H](NC(=O)[C@H](CCCCN)NC(=O)[C@@H]5CCCN5C(=O)[C@@H]5CCCN5C(=O)[C@H](CSSC[C@H](NC(=O)[C@H](CCCCN)NC(=O)[C@H](CCCNC(=N)N)NC(=O)[C@H](CC(N)=O)NC(=O)[C@H](CCSC)NC2=O)C(=O)N[C@@H](CCCCN)C(=O)N4)NC(=O)[C@H](CCC(=O)O)NC(=O)[C@@H]2CCCN2C(=O)[C@H](CO)NC(=O)CNC(=O)[C@H](C(C)C)NC1=O)C(=O)N[C@@H](CCCNC(=N)N)C(=O)N[C@@H](C)C(=O)N[C@@H](CCC(N)=O)C(=O)NCC(=O)N3` [Vm24, Vm24 toxin] are “approximately 1” and “significant inhibition”.
